Where “and” joins values, the source holds several entries; their conditions need not be identical. Identical values can stand only once.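 Five compound concentrations were applied to cells in 96-well plates for 48 hours; endpoints were derived by simple linear interpolation of the resulting dose-response curve. GI50: concentration for 50% inhibition of growth. The concentration for full growth arrest is given as TGI.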
Experiments:
Experiment in all cases: NCI-60 cell line screen, 48 h
[1] = test system: DU-145 prostate
[2] = test system: MALME-3M melanoma
[3] = test system: MDA-MB-231 breast
[4] = test system: MDA-MB-435
[5] = test system: NCI-H226 lung
[6] = test system: NCI-H23 lung
[7] = test system: OVCAR-5 ovarian
[8] = test system: SF-268 CNS
[9] = test system: SR leukemia
[10] = test system: UO-31 renal

| SMILES | GI50 [1] [µM] | TGI [1] [µM] | GI50 [2] [µM] | TGI [2] [µM] | GI50 [3] [µM] | TGI [3] [µM] | GI50 [4] [µM] | TGI [4] [µM] | GI50 [5] [µM] | TGI [5] [µM] | GI50 [6] [µM] | TGI [6] | GI50 [7] [µM] | TGI [7] [µM] | GI50 [8] [µM] | TGI [8] [µM] | GI50 [9] [µM] | TGI [9] | GI50 [10] [µM] | TGI [10] |
| --- | --- | --- | --- | --- | --- | --- | --- | --- | --- | --- | --- | --- | --- | --- | --- | --- | --- | --- | --- | --- |
| Cn1ccnc1C(=O)/C=C/c1ccc(C(=O)Nc2ccc(Cl)cc2)cc1 | 1.32 | > 33.3 | 2.23 | 12.2 | 1.2 | 16.7 | 1.37 | > 33.3 | 3.11 | 18 | 1.25 | 7.62 µM | 1.1 | 5.64 | 1.37 | > 33.3 | 0.255 | 1.56 µM | 0.905 | 4.34 µM |
| Cn1nccc1Nc1nccc(-c2cc3c(s2)C(C)(C)N(CCN2CCOCC2)C3=O)n1 | 25.8 | > 100 | 0.183 | > 100 | 2.8 | > 100 | 0.852 | > 100 | 20.2 | > 100 | 0.858 | > 100 µM | 0.498 | > 100 | 27.8 | > 100 | 23 | > 100 µM | 3.76 | > 100 µM |
| O=C(CN1CCN(c2ncnc3ccccc23)CC1)Nc1ccc(Cl)cc1C(=O)c1ccccc1Cl | 0.368 | 12 | 0.289 | 2.52 | 0.387 | 3.62 | 0.589 | 2 | 1.15 | 6.26 | 1.18 | 3.87 µM | 2.92 | > 42.2 | 0.686 | 13 | 0.263 |  | 1.87 | 12.6 µM |
| COc1cc(O)c2c(O)c3c(c4c2c1[C@]1(C4)C(C)=CCCC1(C)C)[C@H](O)[C@@]1(O)CC(=O)C(C(N)=O)=C(O)[C@@]1(O)C3=O |  | 2.43 |  | 0.675 |  | 1.17 |  | 1.2 |  | 0.951 |  | 1.34 µM |  | 1.23 |  | 1.81 |  | 1.45 µM |  | 1.27 µM |
| O=C(Nc1ccccc1O)c1cccc(NC2=C(Cl)C(=O)N(Cc3ccccc3)C2=O)c1 | 7.07 | 20.6 | 0.488 | 9.19 | 1.89 | 7.53 | 6.03 | 17.7 | 3.7 | 11.5 | 3.44 | 9.38 µM | 13.4 | 27.7 | 11.3 | 27.5 | 0.583 | 2.57 µM | 8.53 | 25.1 µM |
| COc1ccccc1OCC(=O)Nc1sc2c(c1C(N)=O)CCC2 | > 100 | > 100 | > 100 | > 100 | > 100 | > 100 | > 100 | > 100 | 44.3 | > 100 | > 100 | > 100 µM | > 100 | > 100 | > 100 | > 100 | > 100 | > 100 µM | > 100 | > 100 µM |
| COc1ccc(CCN2C(=O)C=CC2=O)cc1OC |  | 31 |  | 29.8 |  | 28.5 |  | 34 |  | 13 |  | 53.8 µM |  | 35.6 |  | 54.4 |  | 6.7 µM |  | 3.05 µM |
| CN(C)c1ccc(N2Cc3ccccc3OC3=C2C(=O)c2c(O)ccc(O)c2C3=O)cn1 | 0.223 | 0.51 | 0.218 | 0.495 | 0.234 | 0.745 | 0.237 | 0.544 | 0.854 | 3.66 | 0.277 | 0.927 µM | 0.51 | 1.56 | 0.37 | 1.59 | 0.127 | > 100 µM | 0.135 | 0.351 µM |
| COc1ccc2nc(-c3cc(-c4cc(OC)c(OC)c(OC)c4)n[nH]3)[nH]c2c1 | 2.29 | 8.28 | 1.74 | 6.4 | 2.87 | 12.9 | 1.49 | 3.11 | 0.462 | 2.98 | 1.34 | 4.91 µM | 3.03 | 12.6 | 2.74 | 9.38 | 1.74 | 8.38 µM | 1.57 | 4.11 µM |
| O=C1NN(c2ccc(C(=O)O)cc2)C(=O)/C1=C\c1ccc([N+](=O)[O-])o1 | 85.6 | > 100 | 20.7 | 41.2 | 58.5 | > 100 | 32.1 | > 100 | > 100 | > 100 | 75.1 | > 100 µM | > 100 | > 100 | 61.2 | > 100 | 32.9 | > 100 µM | 59.1 | > 100 µM |
| CCOc1c(Br)cc(C2C(C(=O)OC)=CN(C)C=C2C(=O)OC)cc1OC | > 100 | > 100 | > 100 | > 100 | 32.8 | > 100 | 37.3 | > 100 | 86.3 | > 100 | 84.9 | > 100 µM | > 100 | > 100 | > 100 | > 100 | 30.6 | > 100 µM | 28.8 | > 100 µM |
| CC(=O)N1N=C2/C(=C/c3ccccc3)CC(C)CC2C1c1ccccc1 (centres undefined) | 16.1 | 33.5 | 18 | 37.4 | 14.2 | 31.8 | 11.2 | 27.7 | 15.3 | 34 | 14.4 | 28 µM | 17.7 | 32.2 | 14.8 | 30.6 | 10.7 | 33 µM | 12.8 | 31.1 µM |
| COC(=O)Nc1nc2ccc(Oc3ccc(NC(=O)Nc4cccc(C(=O)O)c4)cc3)cc2[nH]1 | 8.07 | > 25 | 7.92 | > 25 | 11.5 | > 25 | 1.32 | 6.03 | 5.2 | > 25 | 9.64 | > 25 µM | 12 | > 25 | 11.3 | > 25 | 2.41 | > 25 µM | 15.7 | > 25 µM |
| Cn1cncc1[C@@](N)(c1ccc(Cl)cc1)c1ccc2c(c1)c(-c1cccc(Cl)c1)cc(=O)n2C | 1.81 | 3.66 | 0.901 | 12.1 | 2.52 | 14.9 | 0.172 | 1.93 | 5.98 | 21.5 | 2.64 | 14.4 µM | 5.59 | 19.3 | 3.01 | 14.7 | 0.165 | 4.32 µM | 1.97 | 6.97 µM |
| O=C1CC(c2ccc(N3CCOCC3)cc2)(c2ccsc2)NC(=O)C1Sc1ccccc1Cl (centres undefined) | 85 | > 100 | > 100 | > 100 | 45.9 | > 100 | 88.6 | > 100 | > 100 | > 100 | 65.5 | > 100 µM | > 100 | > 100 | 20.2 | > 100 | 4.4 | > 100 µM | 34.4 | > 100 µM |
| Nc1nc(N)c(N=O)c(Nc2ccc(O)cc2)n1 |  | > 100 |  | > 100 |  | > 100 |  | > 100 |  | 96 |  | > 100 µM |  | > 26.1 |  | > 83.8 |  | 97.7 µM |  | > 86.7 µM |
| CCC(C)(C)C(=O)O[C@H]1C[C@@H](C)C=C2C=C[C@H](C)[C@H](CC[C@@H]3C[C@@H](O)CC(=O)O3)[C@H]21 | 12.1 | 24.6 | 13.9 | 30.5 | 0.224 | 0.732 | 8.03 | 21 | 2.32 | 9.27 | 1.79 | 15.3 µM and 3.55 µM | 9.19 | 22.9 | 0.715 | 15.4 | 1.72 | 13.1 µM and > 30 µM | 2.85 | 14.7 µM and 10.1 µM |
| CC(C)(C)NC(C1=CC(C)(C)c2ccccc2C1=O)c1ccccc1 (centres undefined) | 1.55 | 3.24 | 1.34 | 2.97 | 1.58 | 3.45 | 1.98 | 5.4 | 1.42 | 3.17 | 1.49 | 3.17 µM | 1.82 | 3.78 | 1.38 | 2.74 | 0.293 | 1.74 µM | 1.18 | 2.45 µM |
| COc1cc2c3c(n(CCCCOC(=O)C(F)(F)F)c(=O)c2cc1OC)-c1cc2c(cc1C3=O)OCO2 | > 80 | > 100 | > 100 | > 100 | 31.9 | > 82.2 | > 100 | > 100 | 98.6 | > 100 | > 100 | > 100 µM | > 100 | > 100 | > 100 | > 100 | 0.589 | 13.4 µM | > 100 | > 100 µM |

From PubChem BioAssay (NCI)
